According to patent US12721828B2, “Pharmaceutical liquid composition, kit of parts comprising the pharmaceutical liquid composition, and method for preparing the pharmaceutical liquid composition” (MPERIUM B.V., priority 2019, dated 2026):
Where two headings read alike, the source gives them in different places.

Tests used:
[1] = 350 mg/ml, 6 hours, room temperature, Watson-Marlow 505-S pump, tube diameter 0.2 mm, rpm 50
Procedure: A 6 hour test has been performed wherein a SPB oplossing (350 mg/ml) was circulated at room temperature by a Watson-Marlow 505-S pump, tube diameter 0.2 mm, rpm 50. The pump settings correspond to an almost dropwise output. The speed was controlled to be low to simulate a worst case situation to signal blocking of the tube and/or crystallization of the SPB solution in the tube.

[2] = not given; remark: listed apart in the source
[3] = 1.88 mmol/ml (350 mg/mL SPB) in an aqueous solution

Substance: Sodium Phenylbutyrate [SPB]
- dissolving in purified water (500 mg/ml): required to pre-heat (40° C.) the purified water to dissolve the SPB completely
- behaviour during the dissolving process in purified water (SPB concentrations higher than 350 mg/ml): significant lumping
- blockage of the tube and crystallization of the SPB solution in the tube [1]: did not occur
- crystallization on storage ([2]; 450 mg/ml, 400 mg/ml and 350 mg/ml solutions, 2 weeks at 25° C., 40° C. and 5° C.): Only the SPB 500 mg/ml showed crystallization
- crystallization on storage ([2]; 500 mg/ml solution, clear glass bottles, 40° C.): crystallization after 1 week
- pH of aqueous solution [3]: > 8
